Assay results reported in paper PMC3689638, “Cell cycle-dependent activity of the novel dual PI3K-MTORC1/2 inhibitor NVP-BGT226 in acute leukemia” (Molecular Cancer, 2013).
Entries after “also recorded” stand apart in the source; their conditions may differ. Like-named read-outs stand apart in the source and are kept apart here.

Columns and labels:
[1] = test system: Ba/F3 KIT D816Y; assay: Inhibition of proliferation (XTT), isogenic Ba/F3 model; assay type: cell-based, murine; conditions: Mus musculus; for IC50: BaF3; for viability at 0.01 µM: BaF3, 10 nM, read-out: Inhibition of proliferation At 10 nM (% alive); for viability at 0.1 µM: BaF3, 100 nM, read-out: Inhibition of proliferation At 100 nM (% alive)
[2] = test system: native leukemia blasts; assay: Annexin V/PI apoptosis assay, native leukemia blasts treated ex vivo; assay type: cell-based; conditions: Homo sapiens
Description: (§1) Translocation of phosphatidylserine from the inner to the outer leaflet of the plasma membrane as an early indicator of apoptosis was analyzed using an Annexin V-based assay (Immunotech, Marseilles, France) and a FACScalibur® flow cytometer loaded with CellQuest® analysis software (BD, Heidelberg, Germany).

[3] = test system: MOLM14 cells (FLT3 ITD); assay: annexin V-based apoptosis assay, MOLM14; assay type: cell-based; conditions: Homo sapiens, MOLM-14, read-out: IC50 induction of apoptosis
Description: as §1

[4] = test system: Ba/F3 BCR/ABL1; assay: Inhibition of proliferation (XTT), isogenic Ba/F3 model; assay type: cell-based, murine; conditions: Mus musculus; for IC50: BaF3; for viability at 0.01 µM: BaF3, 10 nM, read-out: Inhibition of proliferation At 10 nM (% alive); for viability at 0.1 µM: BaF3, 100 nM, read-out: Inhibition of proliferation At 100 nM (% alive)
[5] = test system: HMC1.1, HMC1.2, GIST882 and GIST48 cells; assay: induction of apoptosis in imatinib-resistance cell models; assay type: cell-based, human; conditions: HMC1.1/HMC1.2 and GIST882/GIST48; irrespective of the sensitivity profile towards TKI
Excerpt: We tested this theory using two cell models comparing primary TK-sensitive mutations with secondary TK-insensitive mutations: The first model consists of a mast cell leukemia cell line (HMC1.1), which harbors an imatinib-sensitive KIT V560G mutation – and a derivative sister cell line (HMC1.2), which is characterized by a secondary activation loop KIT D816V mutation, rendering the cells insensitive towards imatinib. Additionally we tested the GIST solid tumor cell line GIST882 (harboring an imatinib-sensitive KIT K642E mutation) with a second cell line, which was established from a patient with relapsing GIST under imatinib therapy (GIST48). This cell line harbors a primary homozygous juxtamembrane KIT mutation (V560D) plus a secondary heterozygous imatinib-insensitive activation loop mutation (D820A).
Supplementary file 1476-4598-12-46-S3.tiff: Additional file 3: Figure S2 PI3K/MTOR inhibition in imatinib-resistance models. Dual PI3K/MTOR inhibition is effective in tyrosine kinase inhibitor-resistant cell models. […] Dose-effect plots are provided indicating sensitivity profiles of both dual PI3K/MTOR inhibitors that are independent of the sensitivity patterns for imatinib. Linear regression analyses to calculate IC50 estimates are provided for all cell lines. […]

[6] = test system: Ba/F3 KIT WT; assay: Inhibition of proliferation (XTT), isogenic Ba/F3 model; assay type: cell-based, murine; conditions: Mus musculus; for IC50: BaF3; for viability at 0.01 µM: BaF3, 10 nM, read-out: Inhibition of proliferation At 10 nM (% alive); for viability at 0.1 µM: BaF3, 100 nM, read-out: Inhibition of proliferation At 100 nM (% alive)
Description: FLT3 S451F cDNA cloned into a pCMVneo plasmid vector [53] was generously provided by Dr. Fröhling, University of Ulm, Germany. KIT wildtype cDNA cloned into a pJP1563 plasmid vector was obtained from the DNASU Plasmid Repository at the Biodesign Institute of the Arizona State University (ASU). Lipofection transfection into the parental Ba/F3 cell line was performed to stably express KIT wildtype or mutant FLT3 S451F by double selection for neomycin (pCMVneo plasmid), blasticidin (pJP1563 plasmid) or […] (G418; all other plasmids) resistance and IL-3-independent growth. The Ba/F3 KIT wildtype cell line was cultured using recombinant human stem cell factor (SCF/KIT Ligand, R&D, Minneapolis, MN) as a growth supplement.

[7] = test system: K562 cells (BCR-ABL1); assay: annexin V-based apoptosis assay, K562; assay type: cell-based; conditions: Homo sapiens, read-out: IC50 induction of apoptosis
Description: as §1

[8] = test system: Ba/F3 KIT D816V; assay: Inhibition of proliferation (XTT), isogenic Ba/F3 model; assay type: cell-based, murine; conditions: Mus musculus; for IC50: BaF3; for viability at 0.01 µM: BaF3, 10 nM, read-out: Inhibition of proliferation At 10 nM (% alive); for viability at 0.1 µM: BaF3, 100 nM, read-out: Inhibition of proliferation At 100 nM (% alive)
[9] = as above; assay type: cell-based, murine; conditions: mouse, Ba/F3 parental cells (with IL3), Ba/F3 Parental (w/ IL3); for viability at 0.01 µM: 10 nM, read-out: Inhibition of proliferation At 10 nM (% alive); for viability at 0.1 µM: 100 nM, read-out: Inhibition of proliferation At 100 nM (% alive)
[10] = test system: Ba/F3 FLT3 ITD; assay: Induction of apoptosis, isogenic Ba/F3 model; assay type: cell-based, murine; conditions: for IC50: Mus musculus, not reached = > 5 000 nM
Description: as §1

[11] = test system: Ba/F3 FLT3 D835Y; assay: Induction of apoptosis, isogenic Ba/F3 model; assay type: cell-based, murine
Description: as §1

[12] = test system: Ba/F3 KIT D816V; assay: Induction of apoptosis, isogenic Ba/F3 model; assay type: cell-based, murine
Description: as §1

[13] = test system: Ba/F3 Parental (w/ IL3); assay: Induction of apoptosis, isogenic Ba/F3 model; assay type: cell-based, murine
Description: as §1

[14] = test system: Ba/F3 KIT D816F; assay: Induction of apoptosis, isogenic Ba/F3 model; assay type: cell-based, murine; conditions: for IC50: Mus musculus, BaF3
Description: as §1

[15] = test system: Ba/F3 FLT3 N841H; assay: Induction of apoptosis, isogenic Ba/F3 model; assay type: cell-based, murine
Description: as §1

[16] = test system: Ba/F3 KIT D816Y; assay: Induction of apoptosis, isogenic Ba/F3 model; assay type: cell-based, murine; conditions: for IC50: Mus musculus, BaF3
Description: as §1

[17] = test system: Ba/F3 FLT3 K663Q; assay: Induction of apoptosis, isogenic Ba/F3 model; assay type: cell-based, murine
Description: as §1

[18] = test system: Ba/F3 BCR/ABL1; assay: Induction of apoptosis, isogenic Ba/F3 model; assay type: cell-based, murine
Description: as §1

[19] = test system: Ba/F3 FLT3 WT; assay: Induction of apoptosis, isogenic Ba/F3 model; assay type: cell-based, murine; conditions: for IC50: Mus musculus, BaF3
Description: as §1

[20] = test system: mononuclear cells of a bone marrow donor; assay: XTT-based proliferation assay, donor mononuclear cells ex vivo
Description: Bone marrow aspirate and peripheral blood samples from consented patients with acute leukemia as well as samples from healthy blood and bone marrow donors were collected in 5000 U heparin with the approval of the ethics committee of the Medical Faculties of the University of Tübingen or the University of Ulm. Mononuclear cells were isolated by Ficoll-Hypaque density gradient fractionation. Cells were cultured in DMEM medium, supplemented with 20% fetal bovine serum (GIBCO/Invitrogen, Darmstadt, Germany or Biochrom AG, Berlin, Germany), 1% penicillin G (10,000 units/mL), and streptomycin (10,000 μg/mg) and 2 mmol/L L-glutamine.

[21] = Homo sapiens, read-out: Proliferation IC50, Pt. Nr. 552 (donor), bone marrow donor, ex vivo
[22] = Mus musculus, BaF3, not reached = > 5 000 nM

## Cn1c(=O)n(-c2ccc(C(C)(C)C#N)cc2)c2c3cc(-c4cnc5ccccc5c4)ccc3ncc21 [NVP-BEZ235]
[1]
  IC50: 72 nM
  viability at 0.01 µM: 64%
  viability at 0.1 µM: 62%
[2]; Pt. Nr. 290, ex vivo
  IC50: 71 nM
[2]; Pt. Nr. 368, ex vivo
  IC50: 3180 nM
[2]; Pt. Nr. 527, ex vivo
  IC50: 6820 nM
[2]; Pt. Nr. 528, ex vivo
  IC50: 371 nM
[2]; Pt. Nr. 532, ex vivo
  IC50: 653 nM
[3]
  IC50: > 10000 nM
[4]
  IC50: 131 nM
  viability at 0.01 µM: 58%
  viability at 0.1 µM: 50%
[5]
  induction of apoptosis: potently induced apoptosis
[6]
  IC50: 6 nM
  viability at 0.01 µM: 12%
  viability at 0.1 µM: 11%
[7]
  IC50: > 10000 nM
[8]
  IC50: 8 nM
  viability at 0.01 µM: 40%
  viability at 0.1 µM: 38%
[9]
  viability at 0.01 µM: 89%
  viability at 0.1 µM: 98%
[10]
  Induction of apoptosis At 1000 nM (% apopt.): 19%
  Induction of apoptosis At 5000 nM (% apopt.): 27%
  IC50: > 10000 nM
[11]
  Induction of apoptosis At 1000 nM (% apopt.): 19%
  Induction of apoptosis At 5000 nM (% apopt.): 28%
[11]; not reached = > 5 000 nM
  Induction of apoptosis IC50: Not reached
[12]
  Induction of apoptosis At 1000 nM (% apopt.): 4%
  Induction of apoptosis At 5000 nM (% apopt.): 23%
[12]; not reached = > 5 000 nM
  Induction of apoptosis IC50: Not reached
[13]
  Induction of apoptosis At 1000 nM (% apopt.): 3%
  Induction of apoptosis At 5000 nM (% apopt.): 6%
[13]; not reached = > 5 000 nM
  Induction of apoptosis IC50: Not reached*
[14]
  Induction of apoptosis At 1000 nM (% apopt.): 40%
  Induction of apoptosis At 5000 nM (% apopt.): 87%
  IC50: 1240 nM
[15]
  Induction of apoptosis At 1000 nM (% apopt.): 19%
  Induction of apoptosis At 5000 nM (% apopt.): 22%
[15]; not reached = > 5 000 nM
  Induction of apoptosis IC50: Not reached
[16]
  Induction of apoptosis At 1000 nM (% apopt.): 5%
  Induction of apoptosis At 5000 nM (% apopt.): 73%
  IC50: 1360 nM
[17]
  Induction of apoptosis At 1000 nM (% apopt.): 17%
  Induction of apoptosis At 5000 nM (% apopt.): 16%
[17]; not reached = > 5 000 nM
  Induction of apoptosis IC50: Not reached
[18]
  Induction of apoptosis At 1000 nM (% apopt.): 38%
  Induction of apoptosis At 5000 nM (% apopt.): 39%
[18]; not reached = > 5 000 nM
  Induction of apoptosis IC50: failed to achieve IC50; also recorded: Not reached
[19]
  Induction of apoptosis At 1000 nM (% apopt.): 38%
  Induction of apoptosis At 5000 nM (% apopt.): 40%
  IC50: 8.3 µM
[20]; [21]
  IC50: > 1000 nM
[20]; read-out: Proliferation IC50, Pt. Nr. 552 (donor), bone marrow donor, ex vivo
  IC50: 1020 nM

## COc1ccc(-c2ccc3ncc4c(c3c2)n(-c2ccc(N3CCNCC3)c(C(F)(F)F)c2)c(=O)n4C)cn1 [NVP-BGT226]
[1]
  IC50: 65 nM
  viability at 0.01 µM: 112%
  viability at 0.1 µM: 26%
[2]; Pt. Nr. 290, ex vivo
  IC50: 4 nM
[2]; Pt. Nr. 368, ex vivo
  IC50: 149 nM
[2]; Pt. Nr. 527, ex vivo
  IC50: 12 nM
[2]; Pt. Nr. 528, ex vivo
  IC50: 12 nM
[2]; Pt. Nr. 532, ex vivo
  IC50: 25 nM
[3]
  IC50: 638 nM
[4]
  IC50: 183 nM
  viability at 0.01 µM: 73%
  viability at 0.1 µM: 52%
[5]
  induction of apoptosis: potently induced apoptosis
[6]
  IC50: 6 nM
  viability at 0.01 µM: 24%
  viability at 0.1 µM: 13%
[7]
  IC50: 354 nM
[8]
  IC50: 153 nM
  viability at 0.01 µM: 110%
  viability at 0.1 µM: 47%
[9]
  viability at 0.01 µM: 100%
  viability at 0.1 µM: 86%
[10]
  Induction of apoptosis At 1000 nM (% apopt.): 38%
  Induction of apoptosis At 5000 nM (% apopt.): 98%
  IC50: 1080 nM
[11]
  Induction of apoptosis At 1000 nM (% apopt.): 33%
  Induction of apoptosis At 5000 nM (% apopt.): 98%
[11]; [22]
  IC50: 1070 nM
[12]
  Induction of apoptosis At 1000 nM (% apopt.): 7%
  Induction of apoptosis At 5000 nM (% apopt.): 99%
[12]; [22]
  IC50: 1790 nM
[13]
  Induction of apoptosis At 1000 nM (% apopt.): 7%
  Induction of apoptosis At 5000 nM (% apopt.): 99%
[13]; [22]
  IC50: 1820 nM
[14]
  Induction of apoptosis At 1000 nM (% apopt.): 87%
  Induction of apoptosis At 5000 nM (% apopt.): 89%
  IC50: 258 nM
[15]
  Induction of apoptosis At 1000 nM (% apopt.): 18%
  Induction of apoptosis At 5000 nM (% apopt.): 99%
[15]; [22]
  IC50: 1210 nM
[16]
  Induction of apoptosis At 1000 nM (% apopt.): 89%
  Induction of apoptosis At 5000 nM (% apopt.): 96%
  IC50: 118 nM
[17]
  Induction of apoptosis At 1000 nM (% apopt.): 26%
  Induction of apoptosis At 5000 nM (% apopt.): 98%
[17]; [22]
  IC50: 1110 nM
[18]
  Induction of apoptosis At 1000 nM (% apopt.): 56%
  Induction of apoptosis At 5000 nM (% apopt.): 97%
[18]; [22]
  IC50: 262 nM
[19]
  Induction of apoptosis At 1000 nM (% apopt.): 41%
  Induction of apoptosis At 5000 nM (% apopt.): 99%
  IC50: 0.345 µM
[20]; [21]
  IC50: > 1000 nM
[20]; read-out: Proliferation IC50, Pt. Nr. 552 (donor), bone marrow donor, ex vivo, listed as BFT226
  IC50: 1080 nM
